We go through 40 molecules from US10059667B2, “Antidiabetic compounds” (MERCK SHARP & DOHME CORP., priority 2014, dated 2018).

Assay [1] concerns the target T1, Human GPR40 (Homo sapiens (Human), UniProt O14842). Nature of the assay: FLIPR assay, agonist-induced calcium mobilization in GPR40/CHO NFAT BLA cells. In kind it is cell-based. The procedure:
(§1) Human and mouse GPR40 stable cell-lines were generated in CHO cells stably expressing NFAT BLA (Beta-lactamase). A human GPR40 stable cell-line was generated in HEK cells stably expressing the aequorin expressing reporter. The expression plasmids were transfected using lipofectamine (Life Technologies) following manufacturer's instructions. Stable cell-lines were generated following drug selection.
FLIPR (Fluorimetric Imaging Plate Reader, Molecular Devices) assays were performed to measure agonist-induced calcium mobilization of the stable clones. For the FLIPR assay, one day before assay, GPR40/CHO NFAT BLA cells were seeded into black-wall-clear-bottom 384-well plates (Costar) at 1.4×10e4 cells/20 μL medium/well. The cells were incubated with 20 μl/well of the assay buffer (HBSS, 0.1% BSA, 20 mM HEPES, 2.5 mM probenecid, pH 7.4) containing 8 μM fluo-4, AM, 0.08% pluronic acid at room temperature for 100 minutes. Fluorescence output was measured using FLIPR. Compounds were dissolved in DMSO and diluted to desired concentrations with assay buffer. 13.3 μL/well of compound solution was added.
For orientation: Calcium flux is commonly read through the fluorescence of an indicator in the cells.

The target in assay [2] is T1, Human GPR40. In words: Inositol Phosphate Turnover (IP1) Assay 1, HEK cells stably expressing human GPR40, 3H-inositol SPA. The assay is classed as cell-based. Conditions: HEK cells stably expressing human GPR40, 96-well. The protocol: as §1
The assay was performed in 96-well format. HEK cells stably expressing human GPR40 were plated to be 60-80% confluent within 72 h. After 72 h, the plates were aspirated and the cells washed with inositol-free DMEM (ICN). The wash media was replaced with 150 μL of 3H-inositol labeling media (inositol-free media containing 0.4% human albumin or 0.4% mouse albumin, 1× pen/strep antibiotics, glutamine, 25 mM HEPES to which was added 3H-myo-inositol NEN #NET114A 1 mCi/mL, 25 Ci/mmol diluted 1:150 in loading media with a final specific radioactivity of 1 μCi/150 μL). Alternatively, the human and mouse albumin can be added after the overnight labeling step before the addition of LiCl.
The assay was typically run the next day after 18 h labeling. On the day of the assay, 5 μL of 300 mM LiCl was added to all wells and incubated at 37 degrees for 20 min. 0.75 μL of each compound was added and incubated with the cells for 60 min at 37 degrees. The media was then aspirated off and the assay terminated with the addition of 60 μL 10 mM formic acid. The cells were lysed for 60 min at room temperature. 15-30 μL of lysate was mixed with 70 μL/1 mg YSi SPA beads (Amersham) in clear bottom Isoplates. The plates were shaken for 2 h at room temperature. Beads were allowed to settle and the plates were counted in the Wallac Microbeta.

T1 sequence (O14842 whole entry): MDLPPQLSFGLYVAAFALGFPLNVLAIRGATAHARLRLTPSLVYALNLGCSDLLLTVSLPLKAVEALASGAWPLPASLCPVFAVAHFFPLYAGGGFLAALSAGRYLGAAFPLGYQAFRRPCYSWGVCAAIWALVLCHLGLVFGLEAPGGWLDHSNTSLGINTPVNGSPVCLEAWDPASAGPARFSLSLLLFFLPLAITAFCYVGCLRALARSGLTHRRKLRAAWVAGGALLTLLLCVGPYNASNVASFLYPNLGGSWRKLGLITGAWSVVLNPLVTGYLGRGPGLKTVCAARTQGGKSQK

A word on the EC50: it is the concentration giving half of the maximal effect. `CC(Oc1cccc([C@H](C2CC2)[C@H](C)C(=O)O)c1)C1CN(Cc2cc(C(F)(F)F)ccc2C(F)(F)F)C1` (stereo partly drawn) [Example 9, (2S,3R)-3-(3-(1-(1-(2,5-Bis(trifluoromethyl)benzyl)azetidin-3-yl)ethoxy)phenyl)-3-cyclopropyl-2-methylpropanoic acid]: the EC50 in assay [1] was 0.004 µM; in assay [2] it was 217 nM. The corresponding values for `C[C@H](C(=O)O)[C@H](c1cccc(OCC2CN(c3ncccc3C(F)(F)F)C2)c1)C1CC1` [Example 21, (2S,3R)-3-Cyclopropyl-2-methyl-3-(3-((1-(3-(trifluoromethyl)pyridin-2-yl)azetidin-3-yl)methoxy)phenyl)propanoic acid] are 0.013 µM and 297 nM. The corresponding values for `O=C(O)C[C@H](c1cccc(OC2CCCN(Cc3cc(C(F)(F)F)ccc3C(F)(F)F)C2)c1)C1CC1` (stereo partly drawn) [Example 24, (3S)-3-(3-((1-(2,5-Bis(trifluoromethyl)benzyl)piperidin-3-yl)oxy)phenyl)-3-cyclopropylpropanoic acid] are 0.0074 µM and 524 nM. Consider `C[C@H](C(=O)O)[C@H](c1cccc(OCC2CN(c3cccc(C(F)(F)F)n3)C2)c1)C1CC1` [Example 30], for which the EC50 in assay [1] stood at 0.033 µM; in assay [2], 279 nM. For the molecule `C[C@H](C(=O)O)[C@H](c1cccc(OCC2CCN(Cc3cc(C(F)(F)F)ccc3C(F)(F)F)CC2)c1)C1CC1` [Example 31], the 50% effective concentration (EC50) was found to be 0.001 µM in assay [1] and 77 nM in assay [2].

For the molecule `CC1(COc2cccc([C@@H](CC(=O)O)C3CC3)c2)CN(Cc2cc(C(F)(F)F)ccc2C(F)(F)F)C1` [Example 6, (S)-3-(3-((1-(2,5-Bis(trifluoromethyl)benzyl)-3-methylazetidin-3-yl)methoxy)phenyl)-3-cyclopropylpropanoic acid], the 50% effective concentration (EC50) in assay [1] was 0.095 µM; in assay [2], 2720 nM.

Regarding `C[C@H](C(=O)O)[C@H](c1cccc(OC2CN(Cc3cc(C(F)(F)F)ccc3C(F)(F)F)C2)c1)C1CC1` [Example 32], the EC50 in assay [1] was determined as 0.059 µM; in assay [2], 764 nM. The like results for `Cc1ccc(C(F)(F)F)cc1C(C)N1CC(COc2cccc([C@@H](CC(=O)O)C3CC3)c2)C1` (some centres unmarked) [Example 59] were, in that order, 0.439 µM and 777 nM.

For `C[C@H](C(=O)O)[C@H](c1cccc(OCC2CCN(Cc3cc(C(F)(F)F)ccc3C(F)(F)F)C2)c1)C1CC1` (some centres unmarked) [Example 34], the EC50 in assay [1] was determined as 0.01 µM; in assay [2] it was 273 nM.

With `O=C(O)C[C@H](c1cccc(OCC2CCN(Cc3cc(C(F)(F)F)ccc3C(F)(F)F)C2)c1)C1CC1` (some centres unmarked) [Example 47], the concentration giving a half-maximal response (EC50) was 0.042 µM in assay [1] and 560 nM in assay [2]. The corresponding values for `C[C@H](C(=O)O)[C@H](c1cccc(OCC2CN(Cc3cc(C(F)(F)F)ccc3C(F)(F)F)CCO2)c1)C1CC1` (some centres unmarked) [Example 28] are 0.021 µM and 613 nM. The corresponding values for `O=C(O)C[C@H](c1cccc(OCC2CCCCN2Cc2cc(C(F)(F)F)ccc2C(F)(F)F)c1)C1CC1` (stereo partly drawn) [Example 3, (3S)-3-(3-((1-(2,5-Bis(trifluoromethyl)benzyl)piperidin-2-yl)methoxy)phenyl)-3-cyclopropylpropanoic acid] are 0.126 µM and 8380 nM. Consider `C[C@H](C(=O)O)[C@H](c1cccc(OC[C@H]2CCN(Cc3cc(C(F)(F)F)ccc3C(F)(F)F)C2)c1)C1CC1` [Example 33], for which the 50% effective concentration (EC50) is 0.0053 µM in assay [1] and 158 nM in assay [2]. The like results for `O=C(O)C[C@H](c1cccc(OC2CC3(CCN(Cc4cc(C(F)(F)F)ccc4C(F)(F)F)C3)C2)c1)C1CC1` (single isomer, unassigned) [Example 5A] were, in that order, 0.455 µM and 4150 nM. The like results for `O=C(O)C[C@H](c1cccc(OC2CC3CN(Cc4cc(C(F)(F)F)ccc4C(F)(F)F)CC3C2)c1)C1CC1` (stereo partly drawn) [Example 8, (3S)-3-(3-((2-(2,5-bis(trifluoromethyl)benzyl)octahydrocyclopenta[c]pyrrol-5-yl)oxy)phenyl)-3-cyclopropylpropanoic acid] were, in that order, 0.015 µM and 866 nM. As to `O=C(O)C[C@H](c1cccc(OCC2CN(Cc3cc(C(F)(F)F)ccc3C(F)(F)F)C2)c1)C1CC1` [Example 49], the figures for the EC50 in assay [1] and in assay [2] were 0.0083 µM and 251 nM, respectively. `CC(c1cc(F)ccc1F)N1CC(COc2cccc([C@@H](CC(=O)O)C3CC3)c2)C1` (some centres unmarked) [Example 57]: in assay [1], the concentration giving a half-maximal response (EC50) was 0.48 µM. On to `COc1cccc(C2=CCC(COc3cccc([C@H](C4CC4)[C@H](C)C(=O)O)c3)C2)c1` (stereo partly drawn) [Example 78, (2 S,3R)-3-cyclopropyl-3-(3-((3-(3-methoxyphenyl)cyclopent-3-en-1 yl)methoxy)phenyl)-2-methylpropanoic acid], for which the EC50 in assay [2] was found to be 75 nM. In the case of `C[C@H](C(=O)O)[C@H](c1cccc(OCC2CC(Oc3cccc(-c4ccccc4)c3)C2)c1)C1CC1` (single isomer, unassigned) [Example 120], a half-maximal response in assay [2] (EC50) required 975 nM. Molecule `C[C@H](C(=O)O)[C@H](c1cccc(OCC2CCN([C@@H](C)c3cc(C(F)(F)F)ccc3C(F)(F)F)C2)c1)C1CC1` (some centres unmarked) [Example 41] returned an EC50 in assay [2] of 23 nM.

The molecule `COc1ccnc(OC2CC(COc3cccc([C@H](C4CC4)[C@H](C)C(=O)O)c3)C2)c1` (single isomer, unassigned) [Example 104] displayed an EC50 in assay [2] of 564 nM. Same read-out and setting: for `COc1ccc(Cl)c([C@H]2C[C@@H]2COc2cccc([C@H](C3CC3)[C@H](C)C(=O)O)c2)c1` [Example 158] the value was 26 nM.

Consider `O=C(O)C[C@H](c1cccc(OC2CCN(Cc3cccc(C(F)(F)F)c3)C2)c1)C1CC1` (some centres unmarked) [Example 45], for which the EC50 in assay [1] came to 0.387 µM. As for `C[C@H](C(=O)O)[C@H](c1cccc(OCC2CC(Oc3ccccn3)C2)c1)C1CC1` (some centres unmarked) [Example 103], a half-maximal response in assay [2] (EC50) required 187 nM. Still for that read-out and setting: for `Cc1ccc(F)c(OC2CC(COc3cccc([C@H](C4CC4)[C@H](C)C(=O)O)c3)C2)c1` (single isomer, unassigned) [Example 119] the value was 98 nM; for `COc1ncc(OC2CC(COc3cccc([C@H](C4CC4)[C@H](C)C(=O)O)c3)C2)cn1` (some centres unmarked) [Example 96], 8230 nM; for `C[C@H](C(=O)O)[C@H](c1cccc(OCC2CC(Oc3cccnc3)C2)c1)C1CC1` (some centres unmarked) [Example 109], 7190 nM.

As to `COc1cccc(C2CC2COc2cccc([C@H](C3CC3)[C@H](C)C(=O)O)c2)c1` (single isomer, unassigned) [Example 83], the concentration for a half-maximal effect (EC50) in assay [2] stood at 94 nM. `C[C@H](C(=O)O)[C@H](c1cccc(OC[C@H]2C[C@@H]2c2cccc(OC(F)(F)F)c2)c1)C1CC1` [Example 137]: the concentration for a half-maximal effect (EC50) in assay [2] is 176 nM.

Regarding `C[C@H](C(=O)O)[C@H](c1cccc(OCC2CCN([C@H](C)c3cc(C(F)(F)F)ccc3C(F)(F)F)C2)c1)C1CC1` (some centres unmarked) [Example 40], in assay [2], the EC50 was 25 nM. Same read-out and setting: then `C[C@H](C(=O)O)[C@H](c1cccc(OCC2CC2c2ccccc2)c1)C1CC1` (some centres unmarked) [Example 68], with 304 nM. The same measure, in the same setting: for `COc1cncc([C@H]2C[C@@H]2COc2cccc([C@H](C3CC3)[C@H](C)C(=O)O)c2)c1` [Example 150] the value was 4470 nM; for `COc1ccc(C)cc1OC1CC(COc2cccc([C@H](C3CC3)[C@H](C)C(=O)O)c2)C1` (single isomer, unassigned) [Example 116], 77 nM; for `C[C@H](C(=O)O)[C@H](c1cccc(OCC2CC(Oc3cccc4c3OC(C)(C)C4)C2)c1)C1CC1` (some centres unmarked) [Example 135], 307 nM.

Take `COc1cc(C2CC(COc3cccc([C@H](C4CC4)[C@H](C)C(=O)O)c3)C2)ccn1` (some centres unmarked) [Example 86]: in assay [2], the EC50 came out at 102 nM. Consider `C[C@H](C(=O)O)[C@H](c1cccc(OC[C@H]2C[C@@H]2c2cc(C(F)(F)F)ccc2Cl)c1)C1CC1` [Example 143], for which the EC50 in assay [2] worked out at 175 nM.

Consider `C[C@H](C(=O)O)[C@H](c1cccc(OCC2CC(Oc3c(F)cccc3F)C2)c1)C1CC1` (some centres unmarked) [Example 114], for which the response in assay [2] was half-maximal at 107 nM (EC50). The same measure, in the same setting: for `COc1cccc(C2CC2COc2cccc([C@H](C3CC3)[C@H](C)C(=O)O)c2)c1` (some centres unmarked) [Example 69] the value was 166 nM; for `COc1cccc([C@H]2CC[C@@H](COc3cccc([C@H](C4CC4)[C@H](C)C(=O)O)c3)C2)c1` [Example 79, (2S,3R)-3-cyclopropyl-3-(3-(((1R,3 S)-3-(3-methoxyphenyl)cyclopentyl)methoxy)phenyl)-2-methylpropanoic acid], 118 nM; for `COc1cc(OC2CC(COc3cccc([C@H](C4CC4)[C@H](C)C(=O)O)c3)C2)ccn1` (some centres unmarked) [Example 93], 181 nM.
